{
  "source": "paper PMC9791066",
  "about": "“Investigations into the antibacterial effects and potential mechanism of gambogic acid and neogambogic acid” (Frontiers in Microbiology, 2022)",
  "key": {"[1]": {"test_system": "E. coli BAS849 transformed with pQE80L or pQE80L-EfaUPPS variants", "experiment": "Ex-vivo growth inhibition assay", "type": "cell-based, Escherichia coli", "settings": "compound at 8 μg/mL", "procedure": "The E. faecalis ATCC29212 undecaprenyl pyrophosphate synthase genes, and the L91A and L146A mutation fragments were cloned into the BamH I and Hind III digested pQE80Lvector, respectively. The resulting plasmids were transformed into E. coli BAS849, respectively. The strain transformed with the empty vector pQE80L was used as a negative control. A single colony of each transformant was inoculated into LB broth supplemented with 100 μg/mL ampicillin and incubated at 200 rpm, 37°C overnight. After diluted the cultures to 7 × 10^5 CFU/mL by LB broth, 5 μl of each diluted cultures were dripped onto a LB agar plate supplemented with IPTG (0.5 mM), and GA or NGA (8 μg/mL) followed by cultivation at 37°C overnight, and then imaged. In the meantime, another 5 μl of each diluted cultures were diluted in 100 ul LB and coated on the relevant plates to check for bacterial CFUs."}, "EfaUPPS (K47A)": {"target": "T1, EfaUPPS (K47A) (Enterococcus faecalis, UniProt Q831K9, K53A)", "T1 construct": "His tag; made in house; host or cells: E. coli BL21(DE3)", "T1 sequence (Q831K9 whole entry K53A)": "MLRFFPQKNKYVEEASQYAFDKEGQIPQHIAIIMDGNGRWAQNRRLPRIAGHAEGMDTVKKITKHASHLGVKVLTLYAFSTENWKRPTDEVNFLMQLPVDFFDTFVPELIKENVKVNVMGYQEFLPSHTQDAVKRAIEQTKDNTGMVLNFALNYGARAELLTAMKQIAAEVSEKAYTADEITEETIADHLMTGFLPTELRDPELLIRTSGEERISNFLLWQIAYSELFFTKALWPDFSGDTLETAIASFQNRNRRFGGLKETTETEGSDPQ", "experiment": "UPPS inhibition assay, EfaUPPS K47A mutant", "type": "biochemical", "settings": "K47A mutant compared with wild-type", "procedure": "The EfaUPPS site-directed mutagenesis was generated using QuikChange site-directed mutagenesis kit (Agilent) according to the manufacturer’s instructions. The purification of site-directed mutation was using a similar strategy as described above.\nThe UPPS inhibition assay was carried out by measuring the fluorescence of the reaction mixture in a black 96-well microtiter plate (Corning, United States). […] After the indicated incubation period, the reaction was terminated by the addition of 10 μl of 0.5 M EDTA solution. Transferred 50 μl of the reaction mixture into a new 96-well microtiter plate, and quenched with an equal volume of Master Reaction Mix (Pyrophosphate Assay Kit, Sigma-Aldrich, USA) for 30 min. The UPPS inhibitory activity was performed by calculating the fluorescence percentage through determining the fluorescence absorbance of reaction mixture at 316 and 456 nm. Data of UPPS inhibitory activities were plotted versus compound concentrations on a semi-log scale using GraphPad Prism7. All the results were the means of at least three biological replicates."}, "EfaUPPS (L91A)": {"target": "T2, EfaUPPS (L91A) (Enterococcus faecalis, UniProt Q831K9, L97A)", "T2 construct": "His tag; made in house; host or cells: E. coli BL21(DE3)", "T2 sequence (Q831K9 whole entry L97A)": "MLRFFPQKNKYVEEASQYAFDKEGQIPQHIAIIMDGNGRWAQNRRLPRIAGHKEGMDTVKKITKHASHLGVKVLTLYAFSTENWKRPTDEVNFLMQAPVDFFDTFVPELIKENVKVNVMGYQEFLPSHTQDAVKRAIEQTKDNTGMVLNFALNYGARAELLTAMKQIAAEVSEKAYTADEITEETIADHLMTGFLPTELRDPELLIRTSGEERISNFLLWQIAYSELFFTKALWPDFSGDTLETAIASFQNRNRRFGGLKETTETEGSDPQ", "experiment": "Microscale thermophoresis binding assay, EfaUPPS L91A", "settings": "MST, no binding", "procedure": "(§1) To characterize the binding affinity between EfaUPPS and GA or NGA, the MST binding assay was performed as previously described ([Lin et al., 2020]). In brief, His-tagged EfaUPPS and site-directed mutated EfaUPPS were labeled with the NT- 647-NHS dye using the Monolith NTTM Protein Labeling Kit RED-NHS (NanoTemper Technologies). Two-fold serially diluted GA or NGA was mixed with 10 nM of labeled EfaUPPS or its derivatives in 10 μl of binding buffer (137 mM NaCl, 2.7 mM KCl, 10 mM Na2HPO4, 1.8 mM KH2PO4, and 0.05% Tween-20, pH 7.8), incubated for 15 min, at room temperature. And then, loaded the mixtures into NT.115 premium coated capillaries (NanoTemper Technologies). MST trace signals were collected from the IR laser on to off for about 20 s, under the 5% LED power and high MST power mode. The change of molecular thermophoresis was monitored by standardized fluorescence value Fnorm, and the binding curve was plotted according to the values of Fnorm. The formed complex affinity was analyzed by MO Affinity Analysis software version 2.3. Apparent dissociation constants (Kd) were calculated using nonlinear fitting assuming one specific binding site with the GraphPad Prism 7 software with the following formula: Y = B^∗Max X/KD + X.\n(§2) (^∗ where BMax is the maximum theoretical specific binding; here BMax = 1)."}, "[2]": {"target": "T3, Enterococcus faecalis UPPS (EfaUPPS), wild-type (Enterococcus faecalis, UniProt Q831K9)", "T3 construct": "His tag; made in house; host or cells: E. coli BL21(DE3)", "T3 sequence (Q831K9 whole entry)": "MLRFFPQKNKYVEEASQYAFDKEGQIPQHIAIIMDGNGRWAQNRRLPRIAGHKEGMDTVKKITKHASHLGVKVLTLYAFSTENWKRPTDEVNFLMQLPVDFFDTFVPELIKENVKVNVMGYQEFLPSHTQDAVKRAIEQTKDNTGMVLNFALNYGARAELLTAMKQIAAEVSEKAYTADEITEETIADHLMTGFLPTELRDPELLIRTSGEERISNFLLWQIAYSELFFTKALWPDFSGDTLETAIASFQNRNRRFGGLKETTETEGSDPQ", "experiment": "UPPS inhibition assay (enzyme-coupled fluorescence), wild-type EfaUPPS", "type": "biochemical", "procedure": "Enterococcus faecalis undecaprenyl pyrophosphate synthase (EfaUPPS) recombination studies were performed as previously described ([Li et al., 2020]). Briefly, the full-length gene sequence of EfaUPPS was cloned into the NdeI and HindIII sites of pET28a vector under control of T7 promoter. The sequenced plasmid was then transformed into E. coli strain BL21(DE3) (Invitrogen) and the transformants were grown on LB broth media supplemented with 50 μg/mL kanamycin. A single colony of the transformant was then cultured in 100 mL of LB broth containing 50 μg/mL kanamycin overnight. The overnight cultures were inoculated into 1 L of LB broth containing 50 μg/mL kanamycin and continue to culture until reaching an OD600 of 0.8. Upon reaching the optimal growth states, the cultures were induced by addition of 1 mM isopropyl-β-D-thiogalactoside (IPTG), and then cultured at 16°C for 16 h. […]\nThe UPPS inhibition assay was carried out by measuring the fluorescence of the reaction mixture in a black 96-well microtiter plate (Corning, United States). […] The UPPS inhibitory activity was performed by calculating the fluorescence percentage through determining the fluorescence absorbance of reaction mixture at 316 and 456 nm. […]"}, "WT EfaUPPS": {"target": "T4, WT EfaUPPS (Enterococcus faecalis, UniProt Q831K9)", "T4 construct": "His tag; made in house; host or cells: E. coli BL21(DE3)", "T4 sequence (Q831K9 whole entry)": "as above", "experiment": "Microscale thermophoresis binding assay, wild-type EfaUPPS", "procedure": "as §1, §2"}, "[3]": {"settings": "overexpression of wild-type EfaUPPS"}},
  "note": "Where two headings read alike, the source gives them in different places.",
  "data": [
    {"smiles": "CC(C)=CCC[C@]1(C)C=Cc2c(O)c3c(c(CC=C(C)C)c2O1)O[C@]12C(=C[C@@H]4C[C@H]1C(C)(C)O[C@@]2(C/C=C(/C)C(=O)O)C4=O)C3=O", "note": "[GA, gambogic acid]", "values": [
      {"measurement": "growth of E. coli BAS849", "setting": "[1]; empty vector pQE80L", "result": "completely inhibited"},
      {"measurement": "growth of E. coli BAS849", "setting": "[1]; [3]", "result": "rescued the cell growth"},
      {"measurement": "growth of E. coli BAS849", "setting": "[1]; pQE80L-EfaUPPS L91A", "result": "moderate resistance"},
      {"measurement": "growth of E. coli BAS849", "setting": "[1]; pQE80L-EfaUPPS L146A", "result": "moderate resistance"},
      {"measurement": "IC50 values of K47A mutant (in words)", "setting": "EfaUPPS (K47A)", "result": "increased"},
      {"measurement": "effect of mutation on inhibitory effect of compound on EfaUPPS enzyme activity", "setting": "EfaUPPS (K47A)", "result": "no obvious difference"},
      {"measurement": "Kd", "setting": "EfaUPPS (L91A)", "result": "> 50000", "unit": "µM"},
      {"measurement": "IC50", "setting": "[2]; WT EfaUPPS, 35 μM IPP, 5 μM FPP, read-out: IC50", "result": 3.08, "unit": "µM"},
      {"measurement": "Kd", "setting": "WT EfaUPPS; MST, WT EfaUPPS, read-out: Kd", "result": "29 ± 8.03", "unit": "µM"}
    ]},
    {"smiles": "CC(C)=CCC[C@]1(C)CC(O)c2c(O)c3c(c(CC=C(C)C)c2O1)O[C@]12C(=C[C@@H]4C[C@H]1C(C)(C)O[C@@]2(C/C=C(/C)C(=O)O)C4=O)C3=O", "note": "(stereo partly drawn) [NGA, neogambogic acid]", "values": [
      {"measurement": "growth of E. coli BAS849", "setting": "[1]; empty vector pQE80L", "result": "completely inhibited"},
      {"measurement": "growth of E. coli BAS849", "setting": "[1]; [3]", "result": "rescued the cell growth"},
      {"measurement": "growth of E. coli BAS849", "setting": "[1]; pQE80L-EfaUPPS L91A", "result": "moderate resistance"},
      {"measurement": "growth of E. coli BAS849", "setting": "[1]; pQE80L-EfaUPPS L146A", "result": "moderate resistance"},
      {"measurement": "effect of mutation on inhibitory effect of compound on EfaUPPS enzyme activity", "setting": "EfaUPPS (K47A)", "result": "significantly reduced"},
      {"measurement": "Kd", "setting": "EfaUPPS (L91A)", "result": "> 50000", "unit": "µM"},
      {"measurement": "IC50", "setting": "[2]", "result": 3.07, "unit": "µM"},
      {"measurement": "Kd", "setting": "WT EfaUPPS", "result": "5.61 ± 2.16", "unit": "µM"},
      {"measurement": "Kd fold lower than that for GA", "setting": "WT EfaUPPS; WT EfaUPPS, NGA vs GA", "result": "about 5 fold"}
    ]}
  ]
}
